Measured values taken from patent US10035766B2, “Compositions for preventing and/or treating lysosomal storage disorders” (Amicus Therapeutics, Inc., priority 2009, dated 2018).
Where a chain is given by its changes, count along the chain named. Counter-ions that a name gives are not always drawn. Like-named read-outs stand apart in the source and are kept apart here.

Columns and labels:
[1] = target: T1, GCase (Homo sapiens, UniProt P04062); assay: GCase activity enhancement (EC50, Emax) of Table 2B; assay type: cell-based
T1 sequence (P04062 40-536): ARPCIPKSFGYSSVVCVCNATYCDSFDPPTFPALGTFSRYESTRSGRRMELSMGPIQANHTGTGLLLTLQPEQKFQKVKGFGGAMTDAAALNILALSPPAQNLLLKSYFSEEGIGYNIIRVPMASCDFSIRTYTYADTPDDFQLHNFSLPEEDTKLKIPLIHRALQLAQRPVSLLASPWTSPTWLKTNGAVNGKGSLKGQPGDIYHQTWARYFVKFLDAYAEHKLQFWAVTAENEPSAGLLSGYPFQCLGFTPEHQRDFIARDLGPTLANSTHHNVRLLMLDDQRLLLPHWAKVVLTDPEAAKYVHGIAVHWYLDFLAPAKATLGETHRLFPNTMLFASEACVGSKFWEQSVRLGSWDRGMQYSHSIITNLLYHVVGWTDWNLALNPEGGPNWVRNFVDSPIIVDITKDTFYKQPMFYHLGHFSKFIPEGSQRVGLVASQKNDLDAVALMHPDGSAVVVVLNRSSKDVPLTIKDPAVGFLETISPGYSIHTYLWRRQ

[2] = target: T2, lysosomal GCase (Homo sapiens, UniProt P04062); assay: In situ lysosomal GCase inhibition and washout in fibroblasts from a normal subject (PFBFDβGlu substrate); assay type: cell-based; details: for in situ washout: after 16-24 hours at IC90, single exponential fit of activity recovery over 8 hours; for IC50: fibroblasts, compound 16-24 hours, substrate 1 hour
T2 construct: fibroblasts established from a normal subject; endogenous in cells; host or cells: fibroblasts established from a normal subject
T2 sequence (P04062 40-536): T1 sequence (P04062 40-536)
Protocol: The effect of the novel compounds of the present invention on lysosomal GCase activity was assayed in situ using fibroblasts established from a normal subject. Cells seeded in 48-well plates were incubated with the indicated concentrations of compound for 16-24 hours. For the dose-response assays, cells were incubated with the in situ substrate 5-(pentafluorobenzoylamino)fluorescein di-β-D-glucopyranoside (PFBFDβGlu) for 1 hour and subsequently lysed to determine the extent of substrate hydrolysis in the presence of compound. […] Inhibition was determined as the ratio of activity in the presence of compound to that in the absence of compound. […] Cells were washed extensively and incubated in drug-free medium to allow net compound efflux from cells. Cells were then tested for lysosomal GCase activity at 2 hour intervals over a total period of 8 hours following compound removal. The increase in activity over time was fitted with a single exponential function to determine the compound's washout time.

[3] = target: T3, recombinant human GCase (rhGCase; Cerezyme®) (Homo sapiens, UniProt P04062, R534H); assay: In vitro enzyme inhibition assay (4-MU-β-D-Glc hydrolysis) for IC50 and Ki; assay type: biochemical; details: for Ki: Cheng-Prusoff from IC50
T3 construct: purchased Genzyme Corp
T3 sequence (P04062 40-536 R534H): T1 sequence (P04062 40-536) with R495H
Protocol: The binding affinity (defined here by Ki binding constant) of GCase for novel compounds of the present invention were empirically determined using enzyme inhibition assays. In brief, the enzyme inhibition assays used monitored the ability of a test compound to bind and prevent the hydrolysis of a fluorogenic substrate in a concentration-dependent manner. Specifically, the enzyme activity of recombinant human GCase (rhGCase; Cerezyme®, Genzyme Corp.) was measured using the 4-methylumbelliferyl-β-D-glucopyranoside (4-MU-β-D-Glc) fluorogenic substrate in the absence or in the presence of varying amounts of each test compound. […] The enzyme inhibition assays were performed at both pH 7.0 (endoplasmic reticulum pH) and at pH 5.2 (lysosomal pH) to gain insight into the binding affinity (i.e., potency) of compounds for GCase in the endoplasmic reticulum and lysososome.
Various concentrations of test compounds were prepared in buffer “M” consisting of 50 mM sodium phosphate buffer with 0.25% sodium taurocholate at pH 7.0 and pH 5.2. Enzyme (Cerezyme®, a recombinant form of the human enzyme β-glucocerebrosidase) was also diluted in the same buffer “M” at pH 7.0 and pH 5.2. […] Five microliters of diluted enzyme was added to 15 μl of the various inhibitor concentrations or buffer “M” alone and incubated at 37° C. for 1 hour with 50 μl of the substrate preparation to assess β-glucosidase activity at pH 7.0 and pH 5.2. […] Fluorescence was measured on a plate reader for 1 sec/well using 355 nm excitation and 460 nm emission.

[4] = pH 5.2 (lysosomal pH), read-out: Ki (μM) pH 5.2
[5] = pH 5.2 (lysosomal pH), read-out: IC50 (μM) pH 5.2
[6] = pH 7.0 (endoplasmic reticulum pH), read-out: Ki (μM) pH 7.0
[7] = pH 7.0 (endoplasmic reticulum pH), read-out: IC50 (μM) pH 7.0

Row | Compound | Emax [1] | in situ washout [2] | inhibition of GCase activity [2] | EC50 [1] | Emax (%) [1] | IC50 [2] | Ki [3, 4] | IC50 [3, 5] | Ki [3, 6] | IC50 [3, 7] | GCase activity enhancement compared to reference compound IFG-tartrate ([1]; same maximum level as IFG-tartrate at much lower concentration)
1 | O[C@@H]1[C@@H]([C@H](O)c2ccccc2)CNC[C@H]1O [(3R,4R,5R)-5-((S)-hydroxy(phenyl)methyl)-piperidine-3,4-diol] | 72.1 ± 3.5% |  |  |  |  |  |  |  |  |  | 
2 | CC(O)[C@H]1CNC[C@@H](O)[C@@H]1O (single isomer, unassigned) |  |  | inhibited GCase activity |  |  |  |  |  |  |  | concentration-dependent increase in GCase activity
3 | C[C@H](F)[C@H]1CNC[C@@H](O)[C@@H]1O [Compound 13, (3R,4R,5R)-5((S)-1-Fluoroethyl)piperdine 3,4-diol Hydrochloride] | 92.8 ± 6.6% | 2.7 ± 0.12 h |  | 44 ± 5 nM |  | 650 ± 172 nM | 0.0498 ± 0.0015 µM | 0.0946 ± 0.0028 µM | 0.009 ± 0.0004 µM | 0.0171 ± 0.0008 µM | 

Further lines, with some results ahead:

Row | Emax [1] | in situ washout [2] | inhibition of GCase activity [2] | EC50 [1] | Emax (%) [1] | IC50 [2] | Ki [3, 4] | IC50 [3, 5] | Ki [3, 6] | IC50 [3, 7] | Compound | GCase activity enhancement compared to reference compound IFG-tartrate ([1]; same maximum level as IFG-tartrate at much lower concentration)
4 | 99.3 ± 4.9% | 12 ± 1.65 h |  |  |  |  |  |  |  |  | CC(O)C1CNCC(O)C1O (single isomer, unassigned) [Compound 10] | 
5 |  | 10.5 ± 1.75 h |  | 490 ± 60 nM | 83.7 ± 2.9% | 518 ± 22 nM | 0.044 ± 0.0017 µM | 0.107 ± 0.0041 µM | 0.01 ± 0.0004 µM | 0.02 ± 0.0008 µM | C[C@@H](O)[C@H]1CNC[C@@H](O)[C@@H]1O [Compound 9, (3R,4R,5R)-5((R)-1-Hydroxyethyl)piperdine 3,4-diol] | 
6 | 109 ± 3.6% |  |  |  |  |  |  |  |  |  | CC(C)(O)[C@H]1CNC[C@@H](O)[C@@H]1O [(3R,4R,5S)-5-(2-hydroxypropan-2-yl)piperidine-3,4-diol] | 
7 | 89.7 ± 3.5% | 3.7 ± 0.63 h |  | 26 ± 3 nM |  | 61 ± 19 nM | 0.016 ± 0.0007 µM | 0.038 ± 0.0016 µM | 0.004 ± 0.0001 µM | 0.007 ± 0.0003 µM | C[C@@H](F)[C@H]1CNC[C@@H](O)[C@@H]1O [Compound 14, (3R,4R,5R)-5((R)-(1-Fluoroethyl)piperdine 3,4-diol Hydrochloride] | 
